For this assay, the target named is T1, CHK2 (Homo sapiens, UniProt O96017).
T1 construct: made in house
Nature of the assay: CHK2 kinase activity assay (DELFIA, phosphorylation of a CDC25C peptide). Conditions: ATP 30 μM, CHK2 1 nM, read-out: IC50, inhibition of CHK2 kinase activity in vitro. In kind it is biochemical.

“And” between values parts separate entries of the source, which are not always exact repeats. Identical values can stand only once. Like-named read-outs stand apart in the source and are kept apart here.

T1 sequence (O96017 whole entry): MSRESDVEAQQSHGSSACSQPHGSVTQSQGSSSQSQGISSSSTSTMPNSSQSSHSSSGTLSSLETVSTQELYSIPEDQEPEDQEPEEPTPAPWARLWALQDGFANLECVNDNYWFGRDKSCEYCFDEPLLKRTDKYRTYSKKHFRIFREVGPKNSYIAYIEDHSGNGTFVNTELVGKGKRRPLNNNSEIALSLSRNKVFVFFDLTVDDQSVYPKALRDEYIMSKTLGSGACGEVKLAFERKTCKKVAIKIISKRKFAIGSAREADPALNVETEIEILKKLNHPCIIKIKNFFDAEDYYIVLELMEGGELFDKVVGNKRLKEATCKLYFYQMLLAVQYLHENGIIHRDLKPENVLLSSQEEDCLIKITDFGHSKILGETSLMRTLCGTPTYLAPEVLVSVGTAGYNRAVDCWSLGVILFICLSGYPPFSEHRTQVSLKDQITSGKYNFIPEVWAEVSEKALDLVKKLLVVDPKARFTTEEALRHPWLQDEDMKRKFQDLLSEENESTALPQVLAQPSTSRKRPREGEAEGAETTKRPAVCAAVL

For `CN1CCC[C@H](Nc2nc(-c3ccccc3O)nc3ccccc23)C1` [Compound A-007, 2-[4-((S)-1-Methylpiperidin-3-ylamino)-quinazolin-2-yl]-phenol], the IC50 – broadly, the concentration that gives 50% inhibition – (first set of tested compounds) lay within 3 to 30 µM and the IC50 (following further studies) was 3 to 30 µM.
With `OCCCc1ccc2c(N[C@H]3CCNC3)nc(-c3cc(F)ccc3O)nc2c1` [Compound A-071, (S)-4-Fluoro-2-(7-(3-hydroxypropyl)-4-(pyrrolidin-3-ylamino)quinazolin-2-yl)phenol], for the setting “following further studies”, the IC50 was ≤ 0.3 µM.
`Oc1ccccc1-c1nc(N[C@H]2CCNC2)c2ccc(-c3ccccc3)cc2n1` [Compound A-020, (S)-2-(7-phenyl-4-(pyrrolidinyl-3-ylamino)quinazolin-2-yl)phenol]: the IC50 (first set of tested compounds) was < 3 µM and the IC50 (following further studies) is 0.3 to 3 µM.
Regarding `Oc1ccccc1-c1nc(N[C@H]2CCNC2)c2cc(-c3ccc(CN4CCOCC4)cc3)ccc2n1` [Compound A-028, (S)-2-(6-(4-(Morpholinomethyl)phenyl)-4-(pyrrolidin-3-ylamino)quinazolin-2-yl)phenol], the IC50 is < 3 µM (first set of tested compounds) and 0.3 to 3 µM (following further studies).
In the case of `N[C@@H]1CCCC[C@@H]1Nc1nc(-c2ccccc2O)nc2ccccc12` (relative stereo) [Compound B-002], the IC50 reads like this: (first set of tested compounds) 3 to 30 µM; (following further studies) 3 to 30 µM and 3.8 µM.
Turning to `Cn1cc(-c2ccc3c(N[C@H]4CCNC4)nc(-c4ccccc4O)nc3c2)cn1` [Compound A-066, (S)-2-(7-(1-Methyl-1H-pyrazol-4-yl)-4-(pyrrolidin-3-ylamino)quinazolin-2-yl)phenol], where the note is “following further studies”, the IC50 is ≤ 0.3 µM.
Take `O=C(NCc1ccccc1)[C@H]1C[C@H](Nc2nc(-c3ccccc3O)nc3ccccc23)CN1` [Compound A-031, (2R,4S)-N-Benzyl-4-(2-(2-hydroxyphenyl)quinazolin-4-ylamino)pyrrolidine-2-carboxamide]: the IC50 is < 3 µM (first set of tested compounds) and 0.3 to 3 µM (following further studies).
With `O=C([C@H]1C[C@H](Nc2nc(-c3ccccc3O)nc3ccccc23)CN1)N1CCCCC1` [Compound A-037, ((2R,4S)-4-(2-(2-Hydroxyphenyl)quinazolin-4-ylamino)pyrrolidin-2-yl)(piperidin-1-yl)methanone], the half-maximal inhibitory concentration (IC50) by setting is: (first set of tested compounds) < 3 µM; (following further studies) ≤ 0.3 µM.
On to `COC(=O)c1ccc(O)c(-c2nc(N[C@H]3CCNC3)c3ccccc3n2)c1` [Compound A-033, (S)-Methyl 4-hydroxy-3-(4-(pyrrolidin-3-ylamino)quinazolin-2-yl)benzoate], for which the IC50 reads like this: (first set of tested compounds) < 3 µM; (following further studies) ≤ 0.3 µM.
For `O=C(O)[C@@H]1CNC[C@H]1Nc1nc(-c2cc(F)ccc2O)nc2ccccc12` (relative stereo) [Compound A-089, trans-4-(2-(5-Fluoro-2-hydroxyphenyl)quinazolin-4-ylamino)pyrrolidine-3-carboxylic acid], the IC50 (following further studies) lay in the range of 0.3 to 3 µM.
`Oc1ccc(Cl)cc1-c1nc(NC2CCCNCC2)c2ccccc2n1` (stereo not drawn) [Compound A-057, 2-(4-(Azepan-4-ylamino)quinazolin-2-yl)-4-chlorophenol]: the IC50 (following further studies) was ≤ 0.3 µM.
For the molecule `COc1ccc2c(N[C@H]3CCNC3)nc(-c3cc(F)ccc3O)nc2c1` [Compound A-074, (S)-4-Fluoro-2-(7-methoxy-4-(pyrrolidin-3-ylamino)quinazolin-2-yl)phenol], for the setting “following further studies”, the IC50 is ≤ 0.3 µM.
Turning to `CCNC(=O)[C@H]1C[C@H](Nc2nc(-c3ccccc3O)nc3ccccc23)CN1` [Compound A-051, (2R,4S)-N-Ethyl-4-(2-(2-hydroxyphenyl)quinazolin-4-ylamino)pyrrolidine-2-carboxamide], the IC50 was < 3 µM (first set of tested compounds) and 0.3 to 3 µM (following further studies).
In the same order, the values of `CN1CCN(C(=O)[C@H]2C[C@H](Nc3nc(-c4ccccc4O)nc4ccccc34)CN2)CC1` [Compound A-036, ((2R,4S)-4-(2-(2-Hydroxyphenyl)quinazolin-4-ylamino)pyrrolidin-2-yl)(4-methylpiperazin-1-yl)methanone] are < 3 µM and 0.3 to 3 µM.
Consider `OCC#Cc1ccc2c(N[C@H]3CCNC3)nc(-c3cc(F)ccc3O)nc2c1` [Compound A-072, (S)-4-Fluoro-2-(7-(3-hydroxyprop-1-ynyl)-4-(pyrrolidin-3-ylamino)quinazolin-2-yl)phenol], for which the IC50 (following further studies) is ≤ 0.3 µM.
`Oc1ccc(F)cc1-c1nc(NC2CCCNCC2)c2ccccc2n1` (stereo not drawn) [Compound A-060, 2-(4-(Azepan-4-ylamino)quinazolin-2-yl)-4-fluorophenol]: the IC50 (following further studies) is ≤ 0.3 µM.
Consider `CC(C)(O)CCc1ccc2nc(-c3cc(F)ccc3O)nc(N[C@H]3CCNC3)c2c1` [Compound A-102, (S)-4-Fluoro-2-(6-(3-hydroxy-3-methylbutyl)-4-(pyrrolidin-3-ylamino)quinazolin-2-yl)phenol], for which the IC50 (following further studies) is ≤ 0.3 µM.
Turning to `O=C([C@H]1C[C@H](Nc2nc(-c3ccccc3O)nc3ccccc23)CN1)N1CCNCC1` [Compound A-035, ((2R,4S)-4-(2-(2-Hydroxyphenyl)quinazolin-4-ylamino)pyrrolidin-2-yl)(piperazin-1-yl)methanone], the IC50 (first set of tested compounds) was < 3 µM and the IC50 (following further studies) was 0.3 to 3 µM.
`NC1CCC(Nc2nc(-c3ccccc3O)nc3ccccc23)CC1` (stereo not drawn) [Compound B-001, 2-[4-(4-Aminocyclohexylamino)-quinazolin-2-yl]-phenol]: the IC50 was in the range of 3 to 30 µM (first set of tested compounds) and 3 to 30 µM (following further studies).
Take `O=C([C@H]1C[C@H](Nc2nc(-c3ccccc3O)nc3ccccc23)CN1)N1CCC1` [Compound A-049, Azetidin-1-yl((2R,4S)-4-(2-(2-hydroxyphenyl)quinazolin-4-ylamino)pyrrolidin-2-yl)methanone]: the IC50 was < 3 µM (first set of tested compounds) and 0.3 to 3 µM (following further studies).
On to `Oc1ccccc1-c1nc(N[C@H]2CCNC2)c2cc(Br)ccc2n1` [Compound A-016, (S)-2-(6-Bromo-4-(pyrrolidin-3-ylamino)quinazolin-2-yl)phenol], for which the IC50 runs as follows: (first set of tested compounds) < 3 µM; (following further studies) 0.3 to 3 µM.
Consider `COCCCc1ccc2c(N[C@H]3CCNC3)nc(-c3ccccc3O)nc2c1` [Compound A-079, (S)-2-(7-(3-Methoxypropyl)-4-(pyrrolidin-3-ylamino)quinazolin-2-yl)phenol], for which the IC50 (following further studies) was ≤ 0.3 µM.
In the case of `COCCOc1ccc2nc(-c3cc(F)ccc3O)nc(N[C@H]3CCNC3)c2c1` [Compound A-095, (S)-4-Fluoro-2-(6-(2-methoxyethoxy)-4-(pyrrolidin-3-ylamino)quinazolin-2-yl)phenol], the IC50 (following further studies) is ≤ 0.3 µM.
For `CN1CCC(Nc2nc(-c3ccccc3O)nc3ccccc23)CC1` [Compound A-003, 2-[4-(1-Methylpiperidin-4-ylamino)-quinazolin-2-yl]-phenol], the IC50 was < 3 µM (first set of tested compounds) and 0.3 to 3 µM (following further studies).
Consider `Oc1ccc(F)cc1-c1nc(N[C@@H]2CNC[C@H]2c2cccc(Cl)c2)c2ccccc2n1` (relative stereo) [Compound A-083], for which, where the note is “following further studies”, the IC50 is 0.3 to 3 µM.
Regarding `Oc1ccccc1-c1cc(N[C@H]2CCNC2)c2ccccc2n1` [Compound C-001, (S)-2-(4-(Pyrrolidin-3-ylamino)quinolin-2-yl)phenol], the IC50 (first set of tested compounds) lay within 3 to 30 µM; the IC50 (following further studies) is 3 to 30 µM and 4.4 µM.
As to `Oc1ccccc1-c1nc(N[C@H]2CCNC2)c2ccc(Cl)cc2n1` [Compound A-062, (S)-2-(7-Chloro-4-(pyrrolidin-3-ylamino)quinazolin-2-yl)phenol], the IC50 (following further studies) was ≤ 0.3 µM.
Consider `CC(C)N(C)C(=O)[C@H]1C[C@H](Nc2nc(-c3ccccc3O)nc3ccccc23)CN1` [Compound A-048, (2R,4S)-4-(2-(2-Hydroxyphenyl)quinazolin-4-ylamino)-N-isopropyl-N-methylpyrrolidine-2-carboxamide], for which the concentration for half-maximal inhibition (IC50) was < 3 µM (first set of tested compounds) and ≤ 0.3 µM (following further studies).
`O=C(Nc1ccccc1)[C@H]1C[C@H](Nc2nc(-c3ccccc3O)nc3ccccc23)CN1` [Compound A-039, (2R,4S)-4-(2-(2-Hydroxyphenyl)quinazolin-4-ylamino)-N-phenylpyrrolidine-2-carboxamide]: the IC50 is < 3 µM (first set of tested compounds) and 0.3 to 3 µM (following further studies).
In the case of `CC(C)(C)c1ccc(O)c(-c2nc(N[C@H]3CCNC3)c3ccccc3n2)c1` [Compound A-022, (S)-4-tert-Butyl-2-(4-(pyrrolidin-3-ylamino)quinazolin-2-yl)phenol], the IC50 is, setting by setting: (first set of tested compounds) 3 to 30 µM; (following further studies) 3 to 30 µM.
Take `CN(C)C(=O)[C@H]1C[C@H](Nc2nc(-c3cc(F)ccc3O)nc3cc(CCCO)ccc23)CN1` [Compound A-061, (2R,4S)-4-(2-(5-Fluoro-2-hydroxyphenyl)-7-(3-hydroxypropyl)quinazolin-4-ylamino)-N,N-dimethylpyrrolidine-2-carboxamide]: the IC50 (following further studies) was ≤ 0.3 µM.
With `N[C@@H]1CCCC[C@H]1Nc1nc(-c2ccccc2O)nc2ccccc12` (relative stereo) [Compound B-003, 2-[4-(trans-2-Aminocyclohexylamino)-quinazolin-2-yl]-phenol], the IC50 by setting is: (first set of tested compounds) < 3 µM; (following further studies) 0.3 to 3 µM.
`CN1CCCC(Nc2nc(-c3ccccc3O)nc3ccccc23)C1` (stereo not drawn) [Compound A-001, 2-[4-(1-Methyl-piperidin-3-yl-amino)-quinazolin-2-yl]-phenol]: the half-inhibitory concentration (IC50) (first set of tested compounds) was < 3 µM; the IC50 (following further studies) was 0.3 to 3 µM and 1.6 µM.
For the molecule `Oc1ccccc1-c1nc(N[C@H]2CCN(Cc3ccccc3)C2)c2ccccc2n1` [Compound A-011, 2-[4-((S)-1-Benzylpyrrolidin-3-ylamino)-quinazolin-2-yl]-phenol], the IC50 is, setting by setting: (first set of tested compounds) 3 to 30 µM; (following further studies) 3 to 30 µM.
Regarding `COc1ccc2nc(-c3cc(F)ccc3O)nc(N[C@H]3CCNC3)c2c1` [Compound A-073, (S)-4-Fluoro-2-(6-methoxy-4-(pyrrolidin-3-ylamino)quinazolin-2-yl)phenol], the IC50 (following further studies) was ≤ 0.3 µM.
With `COc1ccc([C@@H]2CNC[C@H]2Nc2nc(-c3cc(F)ccc3O)nc3ccccc23)cc1` (relative stereo) [Compound A-090, 4-Fluoro-2-(4-(trans-4-(4-methoxyphenyl)pyrrolidin-3-ylamino)quinazolin-2-yl)phenol], the 50% inhibitory concentration (IC50) (following further studies) is ≤ 0.3 µM.

(Values after patent US8324226B2, “Therapeutic oxy-phenyl-aryl compounds and their use” (Cancer Research Technology Limited, priority 2007, dated 2012).)
